Source: patent US20260022143A1, “Cyclic Peptide Inhibitors of IL-23” (JANSSEN PHARMACEUTICA NV, priority 2022, published 2026)
Starred links: 1 amine or outer side, 2 acyl side, 3 side chain; linkers in the order of their positions; H or OH if unused. Positions of bridges follow the written chain, without caps; N, C: chain ends. Non-standard residues stand in square brackets, D forms with d. Residues, ends and D or L forms follow the SMILES beside them. *: point of attachment. X36 = C[N+]1(CCCc2cn(-c3ccc(C[C@H](N[*:1])C(=O)[*:2])cc3)nn2)CCOCC1; X16 = C[N+](C)(C)Cc1cn(-c2ccc(C[C@H](N[*:1])C(=O)[*:2])cc2)nn1; Me3N+(CH2)2O(CH2)2O(CH2)2CO = C[N+](C)(C)CCOCCOCCC(=O)*; CH2CH2OCH2CH2OCH2CH2NMe3+ = C[N+](C)(C)CCOCCOCC*; Phe(4-N3) = [N-]=[N+]=Nc1ccc(C[C@H](N)C(=O)O)cc1; Trp(7-Me) = Cc1cccc2c(C[C@H](N)C(=O)O)c[nH]c12; X20 = C[N+](C)(C)CC[C@H](N[*:1])C(=O)[*:2]; 2Nal = N[C@@H](Cc1ccc2ccccc2c1)C(=O)O; X22 = CN1CC[N+](C)(CCOCCOCC*)CC1; 3Pal = N[C@@H](Cc1cccnc1)C(=O)O; Lys(Me) = CNCCCC[C@H](N)C(=O)O; Pen = CC(C)(S)[C@H](N)C(=O)O; Thp = NC1(C(=O)O)CCOCC1; Sar = CNCC(=O)O

Assay: Exposed Polar Surface Area (EPSA)
Format: physicochemical
Conditions: SFC on Chirex 3014 column; sample 1 mM DMSO stock; read-out: EPSA
Method in brief: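 Compounds, as 1 mM DMSO stock, were injected in duplicate onto an SFC Chirex 3014 column at 35 °C and eluted with a CO2/methanol (20 mM ammonium formate) gradient. EPSA values in Å^2 were derived from retention times using a linear fit to eight calibration standards, reinjected every 20 compounds.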

| EPSA [A^2] | Compound |
| --- | --- |
| 164 | CC(=O)NCCCC[C@@H]1NC(=O)[C@H](Cc2c[nH]c3c(C)cccc23)NC(=O)[C@H]([C@@H](C)O)NC(=O)[C@H](CC(N)=O)NC(=O)[C@@H](NC(C)=O)C(C)(C)SSC(C)(C)[C@@H](C(=O)N[C@@H](Cc2ccc(OCCOCCOCC[N+]3(C)CCN(C)CC3)cc2)C(=O)N[C@@H](Cc2ccc3ccccc3c2)C(=O)NC2(C(=O)N[C@@H](CCC(=O)O)C(=O)N[C@@H](CC(N)=O)C(=O)N[C@@H](Cc3cccnc3)C(=O)N(C)CC(N)=O)CCOCC2)NC1=O [compound 433] (Ac-[Pen]NT[Trp(7-Me)]K(Ac)[Pen]Y(X22)[2Nal][Thp]EN[3Pal][Sar]-NH2; disulfide 1-6 (inferred)) |
| 182 | CC(=O)NCCCC[C@@H]1NC(=O)[C@H](Cc2c[nH]c3c(C)cccc23)NC(=O)[C@H]([C@@H](C)O)NC(=O)[C@H](CC(N)=O)NC(=O)[C@@H](NC(C)=O)C(C)(C)SSC(C)(C)[C@@H](C(=O)N[C@@H](Cc2ccc(N=[N+]=[N-])cc2)C(=O)N[C@@H](Cc2ccc3ccccc3c2)C(=O)NC2(C(=O)N[C@@H](CCC(=O)O)C(=O)N[C@@H](CC(N)=O)C(=O)N[C@@H](Cc3cccnc3)C(=O)N(C)CC(N)=O)CCOCC2)NC1=O [compound 435] (Ac-[Pen]NT[Trp(7-Me)]K(Ac)[Pen][Phe(4-N3)][2Nal][Thp]EN[3Pal][Sar]-NH2; disulfide 1-6 (inferred)) |
| 176 | CC(=O)NCCCC[C@@H]1NC(=O)[C@H](Cc2c[nH]c3c(C)cccc23)NC(=O)[C@H]([C@@H](C)O)NC(=O)[C@H](CC(N)=O)NC(=O)[C@@H](NC(C)=O)C(C)(C)SSC(C)(C)[C@@H](C(=O)N[C@@H](Cc2ccc(-n3cc(C[N+](C)(C)C)nn3)cc2)C(=O)N[C@@H](Cc2ccc3ccccc3c2)C(=O)NC2(C(=O)N[C@@H](CCC(=O)O)C(=O)N[C@@H](CC(N)=O)C(=O)N[C@@H](Cc3cccnc3)C(=O)N(C)CC(N)=O)CCOCC2)NC1=O [compound 441] (Ac-[Pen]NT[Trp(7-Me)]K(Ac)[Pen][X16][2Nal][Thp]EN[3Pal][Sar]-NH2; disulfide 1-6 (inferred)) |

Second part, the compound before the results:

| Compound | EPSA [A^2] |
| --- | --- |
| CC(=O)N[C@@H]1C(=O)N[C@@H](CC[N+](C)(C)C)C(=O)N[C@@H]([C@@H](C)O)C(=O)N[C@@H](Cc2c[nH]c3c(C)cccc23)C(=O)N[C@@H](CCCCN(C)C(C)=O)C(=O)N[C@H](C(=O)N[C@@H](Cc2ccc(OCCOCCOCC[N+](C)(C)C)cc2)C(=O)N[C@@H](Cc2ccc3ccccc3c2)C(=O)NC2(C(=O)N[C@@H](CCCCN(C)C(C)=O)C(=O)N[C@@H](CC(N)=O)C(=O)N[C@@H](Cc3cccnc3)C(=O)N(C)CC(=O)N(C)C)CCOCC2)C(C)(C)SSC1(C)C [compound 436] (Ac-[Pen][X20]T[Trp(7-Me)][Lys(Me)](Ac)[Pen]Y(CH2CH2OCH2CH2OCH2CH2NMe3+)[2Nal][Thp][Lys(Me)](Ac)N[3Pal][Sar]-NMe2; disulfide 1-6) | 149 |
| CC(=O)NCCCC[C@@H]1NC(=O)[C@H](Cc2c[nH]c3c(C)cccc23)NC(=O)[C@H]([C@@H](C)O)NC(=O)[C@H](CC(N)=O)NC(=O)[C@@H](NC(=O)CCOCCOCC[N+](C)(C)C)C(C)(C)SSC(C)(C)[C@@H](C(=O)N[C@@H](Cc2ccc(-n3cc(CCC[N+]4(C)CCOCC4)nn3)cc2)C(=O)N[C@@H](Cc2ccc3ccccc3c2)C(=O)NC2(C(=O)N[C@@H](CCCCNC(C)=O)C(=O)N[C@@H](CC(N)=O)C(=O)N[C@@H](Cc3cccnc3)C(=O)N(C)CC(N)=O)CCOCC2)NC1=O [compound 439, cPEG3aCO-Pen(3)-N-T-7MeW-K(Ac)-Pen(3)-F(4TzlMMo3)-2Nal-THP-K(Ac)-N-3Pya-Sar-CONH2] ({Me3N+(CH2)2O(CH2)2O(CH2)2CO}-[Pen]NT[Trp(7-Me)]K(Ac)[Pen][X36][2Nal][Thp]K(Ac)N[3Pal][Sar]-NH2; disulfide 1-6) | 167 |
